# In PMC7955127, “Preclinical small molecule WEHI-7326 overcomes drug resistance and elicits response in patient-derived xenograft models of human treatment-refractory tumors” (Cell Death & Disease, 2021):
# How the values were obtained:
# [1] = tested on: 134036 HGSOC PDX; assay: HGSOC PDX model 134036; type: in vivo, NSG mice; conditions: 134036 C5 platinum refractory PDX; 20 mg/kg i.v. biweekly, 6 weeks
# Experimental: Two to three mm ovarian tumor fragments were subcutaneously engrafted in the left flank of NSG mice and monitored by physical palpation for tumor growth and engraftment. Engrafted tumors were measured twice a week using digital Vernier calipers and maximum tumor diameter + perpendicular tumor length were digitally recorded into the Study Director software (v 3.0/4.0 StudyLog). Tumor volume was calculated automatically (tumor volume (mm^3) = 0.5236 x [larger diameter (mm) x smaller diameter (mm)^2]). Mice were randomized to treatment once their tumor volume reach 180–300 mm^3 and tumor measurements were performed twice a week up to 120 days or when the tumor volume reaches 700 mm^3.
# Time to progressive disease (PD): Defined as the time (in days) from beginning of treatment to an increase in average tumor volume of >20% from the nadir (taken as the smallest average tumor volume recorded since treatment started or 200 mm^3 if nadir was <200 mm^3 as lesions smaller than this are difficult to measure with accuracy). Median time to harvest (TTH): Defined as the time (in days) from the beginning of treatment to day of harvest at 700 mm^3 and the median TTH was calculated and plotted using Kaplan-Meier curves. Based on ref. [27]. […]
# [2] = Fourteen day maximum tolerated dose study, twice weekly i.v. (non-GLP); type: in vivo
# Experimental: Fourteen day maximum tolerated dose (MTD) study of WEHI-7326 dihydrochloride following twice weekly intravenous administration in female Sprague-Dawley rats. All treatments were administered i.v. (tail vein) in a dosing volume of 10 mL/kg. Treatment was administered in a staggered manner, beginning with WEHI-7326 at 7.5 mg/kg and then increasing the dose on subsequent days. For all data calculations and presentation, the first day of treatment for each group is designated as Day 1. One animal died immediately following a single dose of WEHI-7326 at 60 mg/kg (Group 2). The remaining scheduled treatments at this dose were cancelled and dosing recommenced at a reduced dose of 10 mg/kg to the remaining 3 animals in this group. Intravenous (tail vein) treatment of female Sprague-Dawley rats with WEHI-7326 was tolerated without serious adverse events or body weight loss exceeding the ethical limit at doses of 7.5 and 10 mg/kg in this study.
# Sixteen female Sprague-Dawley rats were microchipped and randomised into four groups of four based on body weight two days prior to the first day’s treatment. The test article was to be tested at four dose concentrations of 7.5 mg/kg, 15 mg/kg, 30 mg/kg and 60 mg/kg, administered i.v. via tail vein injection at a dose rate of 10 mL/kg. […] Animals were to be dosed on their respective Study Day 1, then twice weekly over two weeks. Body weights were measured once prior to dose administration, then daily for the duration of the study and at termination. Clinical observations were performed on a daily basis. Due to the immediate death of one animal dosed with WEHI-7326 at 60 mg/kg and subsequent development of signs of toxicity in animals that had received three doses at 15 mg/kg and two doses at 30 mg/kg, the dose level for the remaining three animals in Group 4 was reduced to 10 mg/kg (four doses). As treatment with WEHI-7326 was tolerated without serious adverse events or body weight loss exceeding the ethical limit at doses of 7.5 and 10 mg/kg in this study, the maximum tolerated dose was determined to be 10 mg/kg.
# [3] = tested on: LIM1899; assay: Cell growth inhibition assay, LIM1899; type: cell-based; conditions: Homo sapiens; LIM1899, colon carcinoma; 72 h viability assay, CellTiterGlo; mean of 3 ± SEM; read-out: IC50 (inhibition of cellular proliferation)
# Experimental: Cells were plated at a density of between 500 to 5000 cells per well for adherent cell lines depending on doubling time, and 15,000 cells per well for lymphoblastic leukemia cell lines, in a 96-well plate in 200 μl of growth media. Plates were incubated overnight at 37 °C before adding the inhibitors. Inhibitors were serially diluted from the stock solutions in complete medium and added to the cells. […] Cell viability was assessed by the AlamarBlue (Invitrogen) or CellTiterBlue/Glo (Promega) method according to manufacturer’s instructions. The curve fits and IC50 values were generated in PRISM (GraphPad, San Diego, CA).
# [4] = Intravenous pharmacokinetics and tolerability in mice; type: in vivo, male Swiss Outbred mice
# Experimental: Briefly, intravenous pharmacokinetics and systemic exposure of WEHI-7326 were assessed in non-fasted male Swiss Outbred mice. WEHI-7326 was administered via intravenous bolus injection (10 ml/kg dose volume) and blood samples were collected at 1, 2, 5, 15 and 30 min and 1, 2, 4, 7.5 and 24 h post-dose (n = 2 mice per time point). A maximum of two samples were obtained from each mouse, with samples being taken either via submandibular bleed (approximately 120 μl; conscious sampling) or terminal cardiac puncture (0.6 ml; while mice were anaesthetized using inhaled Isoflurane). Once collected, blood samples were centrifuged immediately, supernatant plasma was removed, and stored in −20 °C until analysis by LC-MS
# Parameters were calculated with standard calculations: PlasmaCL=DoseIV/AUCIVVSS=AUMCIV/AUCIV*PlasmaCL
# With plasma CL = plasma clearance, AUCIV = area under the plasma concentration vs. time profile, VSS = apparent volume of distribution at steady state, AUMCIV = area under the first moment of the plasma concentration versus time profile from time zero to infinity after IV administration.
# a Measured physicochemical and solubility data for WEHI-7326. […] Microsomal-predicted EH values are included.
# [5] = female rats, 7.5 mg/kg twice weekly i.v.
# [6] = female rats, 10 mg/kg twice weekly i.v.
# [7] = female rats, 15 mg/kg twice weekly i.v.
# [8] = female rats, 30 mg/kg twice weekly i.v.
# [9] = mouse, plasma, iv, male Swiss outbred mice, i.v. 15 mg/kg
smiles,measurement,setting,value
COc1ccc(CNc2nc(NCc3ccc(CN)cc3)nc(NN3CC(=O)NC3=O)n2)cc1 [WEHI-7326],Tumor response,[1],completely unresponsive
same,Lethality,"[2]; female Sprague-Dawley rats, 60 mg/kg i.v.",acutely lethal
same,Mild red staining right fore limb (number of animals),[2]; [5],1/4
same,No remarkable observation (number of animals),[2]; [5],3/4
same,Mild piloerection (number of animals),[2]; [6],3/3
same,"Mild red staining of snout, fore limbs and/or head (number of animals)",[2]; [6],3/3
same,Urine-stained fur (number of animals),[2]; [6],1/3
same,Discharge both eyes (number of animals),[2]; [7],1/4
same,Early termination (StudyDay 9) due to adverse clinical signs and excess body weight loss (number of animals),[2]; [7],3/4
same,Mild red staining of eyes and or head (number of animals),[2]; [7],2/4
same,Mild squinting both eyes (number of animals),[2]; [7],1/4
same,Mild/moderate hunched posture (number of animals),[2]; [7],4/4
same,Mild/moderate piloerection (number of animals),[2]; [7],4/4
same,Urine-stained fur (number of animals),[2]; [7],1/4
same,Early termination (StudyDay 5) due to adverse clinical signs and excess body weight loss (number of animals),[2]; [8],4/4
same,Mild excess salivation (number of animals),[2]; [8],2/4
same,Mild piloerection (number of animals),[2]; [8],4/4
same,"Mild red staining of limbs, eyes, snout and or head (number of animals)",[2]; [8],4/4
same,Mild squinting both eyes (number of animals),[2]; [8],4/4
same,Mild/moderate hunched posture (number of animals),[2]; [8],4/4
same,Mild/moderate labored breathing (number of animals),[2]; [8],4/4
same,Mild/moderate lethargy (number of animals),[2]; [8],4/4
same,Urine-stained fur (number of animals),[2]; [8],4/4
same,Found dead immediately after administration (number of animals),"[2]; female rats, 60 mg/kg i.v., single dose",1/1
same,MTD at 14 days,"[2]; rat, in vivo, iv, female Sprague-Dawley rats, twice weekly i.v., 14 day",10 mg/kg
same,IC50,[3],31.3 ± 2.6 nM
same,Adverse reactions,"[4]; Swiss outbred mice, i.v., up to a dose of 30 mg/kg",no adverse reactions or compound-related side effects
same,clearance,[4]; [9],53 mL/min/kg
same,half-life,[4]; [9],6.3 h
same,Vd,"[4]; mouse, plasma, iv, male Swiss outbred mice, i.v. 15 mg/kg, read-out: Apparent volume of distribution",4.7 L/kg
